For this test, the target named is T1, HCV NS3-4A serine protease (full-length NS3-4A protein, genotype 1a, strain HCV-1) (Hepatitis C virus genotype 1a, UniProt P26664).
T1 construct: using the full-length NS3-4A protein (genotype 1a, strain HCV-1)
T1 sequence (P26664 1658-1711): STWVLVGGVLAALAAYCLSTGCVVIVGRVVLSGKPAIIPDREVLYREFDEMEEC
T1 sequence (P26664 1027-1657): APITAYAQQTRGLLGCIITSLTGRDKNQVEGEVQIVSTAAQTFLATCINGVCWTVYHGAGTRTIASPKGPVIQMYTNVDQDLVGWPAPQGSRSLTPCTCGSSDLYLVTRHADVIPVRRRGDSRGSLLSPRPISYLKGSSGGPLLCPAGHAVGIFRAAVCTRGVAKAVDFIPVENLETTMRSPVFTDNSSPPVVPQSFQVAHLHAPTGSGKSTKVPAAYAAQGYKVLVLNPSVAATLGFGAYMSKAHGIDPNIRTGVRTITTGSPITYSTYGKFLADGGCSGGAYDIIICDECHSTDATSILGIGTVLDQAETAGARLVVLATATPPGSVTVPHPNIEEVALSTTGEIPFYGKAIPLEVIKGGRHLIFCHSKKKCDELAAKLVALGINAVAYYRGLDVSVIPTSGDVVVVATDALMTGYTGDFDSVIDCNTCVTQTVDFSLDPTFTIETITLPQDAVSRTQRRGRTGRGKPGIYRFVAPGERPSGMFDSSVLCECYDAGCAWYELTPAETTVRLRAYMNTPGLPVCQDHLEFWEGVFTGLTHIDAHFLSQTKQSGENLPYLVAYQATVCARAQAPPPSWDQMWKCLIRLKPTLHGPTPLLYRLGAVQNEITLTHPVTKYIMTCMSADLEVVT
As to the kind of experiment: HCV NS3-4A protease assay. The class given is biochemical. Conditions: Protease IC50. The protocol: The inhibitory activity of certain compounds of Table A against HCV NS3-4A serine protease is determined in a homogenous assay using the full-length NS3-4A protein (genotype 1a, strain HCV-1) and a commercially available internally-quenched fluorogenic peptide substrate as described by Taliani, M., et al. 1996 Anal. Biochem. 240:60-67, which is incorporated by reference in its entirety.
Take `C=C[C@@H]1C[C@]1(NC(=O)[C@@H]1C[C@@]2(CN1C(=O)[C@@H](NC(=O)[C@@H](NC(=O)c1cncnc1)C1CCCCC1)C(C)(C)C)C(C)(C)C21CCC1)C(=O)NS(=O)(=O)C1CC1` [Compound 116, (5R,8S)-7-[(2S)-2-({(2S)-2-cyclohexyl-2-[(pyrimidin-5-ylcarbonyl)amino]acetyl}amino)-3,3-dimethylbutanoyl]-N-{(1R,2S)-1-[(cyclopropylsulfonyl)carba-moyl]-2-vinylcyclopropyl}-10,10-dimethyl-7-azadispiro[3.0.4.1]decane-8-carboxamide]: inhibition was half-maximal at 0.6 nM (IC50). To `C=C[C@@H]1C[C@]1(NC(=O)[C@@H]1C[C@@]2(CN1C(=O)[C@@H](NC(=O)[C@@H](NC(=O)c1ncccn1)C1CCCCC1)C(C)(C)C)C(C)(C)C21CCC1)C(=O)NS(=O)(=O)C1CC1` [Compound 117, (5R,8S)-7-[(2S)-2-({(2S)-2-cyclohexyl-2-[(pyrimidin-2-ylcarbonyl)amino]acetyl}amino)-3,3-dimethylbutanoyl]-N-{(1R,2S)-1-[(cyclopropylsulfonyl)carba-moyl]-2-vinylcyclopropyl}-10,10-dimethyl-7-azadispiro[3.0.4.1]decane-8-carboxamide] belongs 8 nM; to `C=C[C@@H]1C[C@]1(NC(=O)[C@@H]1C[C@@]2(CN1C(=O)[C@@H](NC(=O)[C@@H](NC(=O)c1[nH]c(C)c(C)c1C(C)=O)C1CCCCC1)C(C)(C)C)C(C)(C)C21CCC1)C(=O)NS(=O)(=O)C1CC1` [Compound 118, (5R,8S)-7-[(2S)-2-{[(2S)-2-{[(3-acetyl-4,5-dimethyl-1H-pyrrol-2-yl)carbonyl]amino}-2-cyclohexylacetyl]amino}-3,3-dimethylbutanoyl]-N-{(1R,2S)-1-[(cyclopropylsulfonyl)carba-moyl]-2-vinylcyclopropyl}-10,10-dimethyl-7-azadispiro[3.0.4.1]decane-8-carboxamide], 1.4 nM; to `C=C[C@@H]1C[C@]1(NC(=O)[C@@H]1C[C@@]2(CN1C(=O)[C@@H](NC(=O)[C@@H](NC(=O)C(C)(C)N1CCCCC1)C(C)(C)C)C(C)(C)C)C(C)(C)C21CCC1)C(=O)NS(=O)(=O)C1CC1` [Compound 119, (5R,8S)-N-{(1R,2S)-1-[(cyclopropylsulfonyl)carba-moyl]-2-vinylcyclopropyl}-7-[(2S)-2-({(2S)-3,3-dimethyl-2-[(2-methyl-2-piperidin-1-ylpropanoyl)amino]butanoyl}amino)-3,3-dimethylbutanoyl]-10,10-dimethyl-7-azadispiro[3.0.4.1]decane-8-carboxamide], 3.5 nM. With `C=C[C@@H]1C[C@]1(NC(=O)[C@@H]1C[C@@]2(CN1C(=O)[C@@H](NC(=O)[C@@H](NC(=O)c1nc3ccccc3[nH]1)C(C)(C)C)C(C)(C)C)C(C)(C)C21CCC1)C(=O)NS(=O)(=O)C1CC1` [Compound 120, (5R,8S)-7-[(2S)-2-({(2S)-2-[(1H-benzimidazol-2-ylcarbonyl)amino]-3,3-dimethylbutanoyl}amino)-3,3-dimethylbutanoyl]-N-{(1R,2S)-1-[(cyclopropylsulfonyl)carba-moyl]-2-vinylcyclopropyl}-10,10-dimethyl-7-azadispiro[3.0.4.1]decane-8-carboxamide] the figure was 0.7 nM; with `C=C[C@@H]1C[C@]1(NC(=O)[C@@H]1C[C@@]2(CN1C(=O)[C@@H](NC(=O)[C@@H](NC(=O)c1ccno1)C(C)(C)C)C(C)(C)C)C(C)(C)C21CCC1)C(=O)NS(=O)(=O)C1CC1` [Compound 121, (5R,8S)-N-{(1R,2S)-1-[(cyclopropylsulfonyl)carba-moyl]-2-vinylcyclopropyl}-7-[(2S)-2-({(2S)-2-[(isoxazol-5-ylcarbonyl)amino]-3,3-dimethylbutanoyl}amino)-3,3-dimethylbutanoyl]-10,10-dimethyl-7-azadispiro[3.0.4.1]decane-8-carboxamide], 9 nM. As for `C=C[C@@H]1C[C@]1(NC(=O)[C@@H]1C[C@@]2(CN1C(=O)[C@@H](NC(=O)[C@@H](NC(=O)c1ncc[nH]1)C(C)(C)C)C(C)(C)C)C(C)(C)C21CCC1)C(=O)NS(=O)(=O)C1CC1` [Compound 122, (5R,8S)-N-{(1R,2S)-1-[(cyclopropylsulfonyl)carba-moyl]-2-vinylcyclopropyl}-7-[(2S)-2-({(2S)-2-[(1H-imidazol-2-ylcarbonyl)amino]-3,3-dimethylbutanoyl}amino)-3,3-dimethylbutanoyl]-10,10-dimethyl-7-azadispiro[3.0.4.1]decane-8-carboxamide], half-maximal inhibition (IC50) was put at 3 nM. To `C=C[C@H]1C[C@@]1(NC(=O)C1C[C@@]2(CN1C(=O)[C@@H](NC(=O)[C@@H](NC(=O)C1CCN1C(C)(C)C)C(C)(C)C)C(C)(C)C)C(C)(C)C21CCC1)C(=O)NS(=O)(=O)C1CC1` (stereo partly drawn) [Compound 123, (5R)-7-[(2S)-2-{[(2S)-2-{[(1-tert-butylazetidin-2-yl)carbonyl]amino}-3,3-dimethylbutanoyl]amino}-3,3-dimethylbutanoyl]-N-{(1S,2R)-1-[(cyclopropylsulfonyl)carba-moyl]-2-vinylcyclopropyl}-10,10-dimethyl-7-azadispiro[3.0.4.1]decane-8-carboxamide] belongs 6 nM. To `C=C[C@@H]1C[C@]1(NC(=O)[C@@H]1C[C@@]2(CN1C(=O)[C@@H](NC(=O)C(NC(=O)c1ccccc1Nc1ccccc1)C1CCCCC1)C(C)(C)C)C(C)(C)C21CCC1)C(=O)NS(=O)(=O)C1CC1` (stereo partly drawn) [Compound 124, (5R,8S)-7-[(2S)-2-({[(2-anilinobenzoyl)amino](cyclo-hexyl)acetyl}amino)-3,3-dimethylbutanoyl]-N-{(1R,2S)-1-[(cyclopropylsulfonyl)carba-moyl]-2-vinylcyclopropyl}-10,10-dimethyl-7-azadispiro[3.0.4.1]decane-8-carboxamide] belongs 30 nM; to `C=C[C@@H]1C[C@]1(NC(=O)[C@@H]1C[C@@]2(CN1C(=O)[C@@H](NC(=O)C(NC(=O)c1cc3ccccc3[nH]1)C1CCCCC1)C(C)(C)C)C(C)(C)C21CCC1)C(=O)NS(=O)(=O)C1CC1` (stereo partly drawn) [Compound 125, (5R,8S)-7-[(2S)-2-({cyclohexyl[(1H-indol-2-ylcarbonyl)amino]acetyl}amino)-3,3-dimethylbutanoyl]-N-{(1R,2S)-1-[(cyclopropylsulfonyl)carba-moyl]-2-vinylcyclopropyl}-10,10-dimethyl-7-azadispiro[3.0.4.1]decane-8-carboxamide], 1.5 nM. To `C=C[C@@H]1C[C@]1(NC(=O)[C@@H]1C[C@@]2(CN1C(=O)[C@@H](NC(=O)C(NC(=O)c1cc(C(C)(C)C)nn1C)C1CCCCC1)C(C)(C)C)C(C)(C)C21CCC1)C(=O)NS(=O)(=O)C1CC1` (stereo partly drawn) [Compound 126, (5R,8S)-7-[(2S)-2-{[{[(3-tert-butyl-1-methyl-1H-pyrazol-5-yl)carbonyl]amino}(cyclohex-yl)acetyl]amino}-3,3-dimethylbutanoyl]-N-{(1R,2S)-1-[(cyclopropylsulfonyl)carba-moyl]-2-vinylcyclopropyl}-10,10-dimethyl-7-azadispiro[3.0.4.1]decane-8-carboxamide] belongs 8 nM; to `C=C[C@@H]1C[C@]1(NC(=O)[C@@H]1C[C@@]2(CN1C(=O)[C@@H](NC(=O)C(NC(=O)c1nccc3ccccc13)C1CCCCC1)C(C)(C)C)C(C)(C)C21CCC1)C(=O)NS(=O)(=O)C1CC1` (stereo partly drawn) [Compound 127, (5R,8S)-7-[(2S)-2-({cyclohexyl[(isoquinolin-1-ylcarbonyl)amino]acetyl}amino)-3,3-dimethylbutanoyl]-N-{(1R,2S)-1-[(cyclopropylsulfonyl)carba-moyl]-2-vinylcyclopropyl}-10,10-dimethyl-7-azadispiro[3.0.4.1]decane-8-carboxamide], 8 nM; to `C=C[C@H]1C[C@@]1(NC(=O)[C@@H]1C[C@@]2(CN1C(=O)[C@@H](NC(=O)[C@@H](NC(=O)c1ccccc1N(C)C)C(C)(C)C)C(C)(C)C)C(C)(C)C21CCC1)C(=O)NS(=O)(=O)C1CC1` [Compound 130, (5R,8S)-N-{(1S,2R)-1-[(cyclopropylsulfonyl)carba-moyl]-2-vinylcyclopropyl}-7-[(2S)-2-{[(2S)-2-{[2-(dimethylamino)benzoyl]amino}-3,3-dimethylbutanoyl]amino}-3,3-dimethylbutanoyl]-10,10-dimethyl-7-azadispiro[3.0.4.1]decane-8-carboxamide], 5.5 nM. `C=C[C@@H]1C[C@]1(NC(=O)[C@@H]1C[C@@]2(CN1C(=O)[C@@H](NC(=O)[C@@H](NC(=O)[C@@H]1CCN1C(C)C)C(C)(C)C)C(C)(C)C)C(C)(C)C21CCC1)C(=O)NS(=O)(=O)C1CC1` [Compound 131, (5R,8S)-N-{(1R,2S)-1-[(cyclopropylsulfonyl)carba-moyl]-2-vinylcyclopropyl}-7-[(2S)-2-{[(2S)-2-({[(2S)-1-isopropylazetidin-2-yl]carbonyl}amino)-3,3-dimethylbutanoyl]amino}-3,3-dimethylbutanoyl]-10,10-dimethyl-7-azadispiro[3.0.4.1]decane-8-carboxamide]: the 50% inhibitory concentration (IC50) (in general, the concentration that inhibits the measured activity by half) was 0.8 nM. To `C=C1CC(NC(=O)[C@@H]2C[C@@]3(CN2C(=O)[C@@H](NC(=O)[C@@H](NC(=O)[C@@H]2CCCCN2C(C)C)C(C)(C)C)C(C)(C)C)C(C)(C)C32CCC2)(C(=O)NS(=O)(=O)C2CC2)C1` [Compound 132, (5R,8S)-N-{1-[(cyclopropylsulfonyl)carba-moyl]-3-methylenecyclobutyl}-7-[(2S)-2-{[(2S)-2-({[(2S)-1-isopropylpiperidin-2-yl]carbonyl}amino)-3,3-dimethylbutanoyl]amino}-3,3-dimethylbutanoyl]-10,10-dimethyl-7-azadispiro[3.0.4.1]decane-8-carboxamide] belongs 1300 nM.

The values above are taken from patent publication US20110182850A1, “ORGANIC COMPOUNDS AND THEIR USES” (priority 2009, published 2011).
